Key:
[1] = tested on: Klebsiella oxytoca; experiment: Activity of Klebsiella oxytoca Beta-lactamase K1
[2] = tested on: Klebsiella pneumoniae; experiment: Activity of Klebsiella pneumoniae Beta-lactamase TEM-26
[3] = tested on: Klebsiella oxytoca; experiment: Kcat/Km ratio of Klebsiella oxytoca Beta-lactamase K1
[4] = tested on: Escherichia coli; experiment: Kcat/Km ratio of Klebsiella pneumoniae Beta-lactamase TEM-26
[5] = biological target: Beta-lactamase TEM (Escherichia coli) (UniProt P62593); experiment: Activity of Escherichia coli TEM-1 relative to Cephaloridine
[6] = biological target: T1, Beta-lactamase SHV-1 (Klebsiella pneumoniae) (UniProt P0AD64); experiment: Activity of Klebsiella pneumoniae SHV-1 relative to Cephaloridine
T1 sequence (whole entry): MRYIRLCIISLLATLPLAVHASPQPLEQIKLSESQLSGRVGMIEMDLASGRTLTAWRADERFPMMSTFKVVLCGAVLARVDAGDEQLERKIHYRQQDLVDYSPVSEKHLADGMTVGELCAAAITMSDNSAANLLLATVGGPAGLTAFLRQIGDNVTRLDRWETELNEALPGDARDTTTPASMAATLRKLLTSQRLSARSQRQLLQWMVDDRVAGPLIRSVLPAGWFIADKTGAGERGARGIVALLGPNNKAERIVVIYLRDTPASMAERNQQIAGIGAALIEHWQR

[7] = biological target: Beta-lactamase CTX-M (Escherichia coli) (UniProt Q9EXV5); experiment: Activity of Escherichia coli CTX-M-15 relative to Cephaloridine
[8] = tested on: Escherichia coli; experiment: Activity of Klebsiella pneumoniae Beta-lactamase TEM-26 relative to Cephaloridine
[9] = biological target: Beta-lactamase (Escherichia coli) (UniProt Q53TY8); experiment: Activity of Escherichia coli CMY-2 relative to Cephaloridine
[10] = biological target: Beta-lactamase (Pseudomonas aeruginosa (strain ATCC 15692 / PAO1 / 1C / PRS 101 / LMG12228)) (UniProt P24735); experiment: Activity of Pseudomonas aeruginosa AmpC relative to Cephaloridine
[11] = biological target: Beta-lactamase (Enterobacter cloacae) (UniProt P05364); experiment: Activity of Enterobacter cloacae AmpC relative to Cephaloridine
[12] = biological target: Beta-lactamase OXA-10 (Pseudomonas aeruginosa) (UniProt P14489); experiment: Activity of Pseudomonas aeruginosa OXA-10 relative to Cephaloridine
[13] = biological target: T2, Carbapenem-hydrolyzing beta-lactamase SME-3 (Serratia marcescens) (UniProt Q6PRG8); experiment: Activity of Serratia marcescens SME-3 relative to Cephaloridine
T2 sequence (whole entry): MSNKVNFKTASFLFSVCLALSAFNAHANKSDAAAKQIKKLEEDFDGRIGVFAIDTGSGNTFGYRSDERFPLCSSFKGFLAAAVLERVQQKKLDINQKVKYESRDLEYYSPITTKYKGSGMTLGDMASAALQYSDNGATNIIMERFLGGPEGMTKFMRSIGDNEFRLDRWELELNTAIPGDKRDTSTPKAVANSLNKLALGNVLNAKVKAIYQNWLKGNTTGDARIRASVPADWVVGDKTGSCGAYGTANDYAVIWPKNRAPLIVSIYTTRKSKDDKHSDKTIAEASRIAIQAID

[14] = biological target: T3, Beta-lactamase IMP-1 (Pseudomonas aeruginosa) (UniProt Q8G9Q0); experiment: Activity of Pseudomonas aeruginosa IMP-1 relative to Cephaloridine
T3 sequence (whole entry): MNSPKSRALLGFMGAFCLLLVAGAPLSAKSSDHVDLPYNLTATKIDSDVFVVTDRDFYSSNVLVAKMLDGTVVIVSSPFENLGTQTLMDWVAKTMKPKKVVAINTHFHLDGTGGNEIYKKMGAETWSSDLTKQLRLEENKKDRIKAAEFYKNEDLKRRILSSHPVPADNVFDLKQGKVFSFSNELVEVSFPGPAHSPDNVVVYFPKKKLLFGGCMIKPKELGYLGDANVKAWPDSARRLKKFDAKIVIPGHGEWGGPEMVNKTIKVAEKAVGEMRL

[15] = biological target: Beta-lactamase OXA-23 (Acinetobacter baumannii) (UniProt Q9L4P2); experiment: Activity of Acinetobacter baumannii OXA-23 relative to Cephaloridine
[16] = biological target: Beta-lactamase TEM (Escherichia coli) (UniProt P62593); experiment: Kcat/Km ratio of Escherichia coli TEM-1 relative to Cephaloridine
[17] = biological target: T1, Beta-lactamase SHV-1 (Klebsiella pneumoniae); experiment: Kcat/Km ratio of Klebsiella pneumoniae SHV-1 relative to Cephaloridine
[18] = biological target: Beta-lactamase CTX-M (Escherichia coli) (UniProt Q9EXV5); experiment: Kcat/Km ratio of Escherichia coli CTX-M-15 relative to Cephaloridine
[19] = tested on: Klebsiella oxytoca; experiment: Kcat/Km ratio of Klebsiella oxytoca Beta-lactamase K1 relative to Cephaloridine
[20] = tested on: Escherichia coli; experiment: Kcat/Km ratio of Klebsiella pneumoniae Beta-lactamase TEM-26 relative to Cephaloridine
[21] = biological target: Beta-lactamase (Escherichia coli) (UniProt Q53TY8); experiment: Kcat/Km ratio of Escherichia coli CMY-2 relative to Cephaloridine
[22] = biological target: Beta-lactamase (Pseudomonas aeruginosa (strain ATCC 15692 / PAO1 / 1C / PRS 101 / LMG12228)) (UniProt P24735); experiment: Kcat/Km ratio of Pseudomonas aeruginosa AmpC relative to Cephaloridine
[23] = biological target: Beta-lactamase (Enterobacter cloacae) (UniProt P05364); experiment: Kcat/Km ratio of Enterobacter cloacae AmpC relative to Cephaloridine
[24] = biological target: Carbapenem-hydrolyzing beta-lactamase KPC (Klebsiella pneumoniae) (UniProt Q9F663); experiment: Kcat/Km ratio of Klebsiella pneumoniae KPC-2 relative to Cephaloridine
[25] = biological target: T2, Carbapenem-hydrolyzing beta-lactamase SME-3 (Serratia marcescens); experiment: Kcat/Km ratio of Serratia marcescens SME-3 relative to Cephaloridine
[26] = biological target: Beta-lactamase VIM-2 (Pseudomonas aeruginosa) (UniProt Q9K2N0); experiment: Kcat/Km ratio of Pseudomonas aeruginosa VIM-2 relative to Cephaloridine
[27] = biological target: T3, Beta-lactamase IMP-1 (Pseudomonas aeruginosa); experiment: Kcat/Km ratio of Pseudomonas aeruginosa IMP-1 relative to Cephaloridine
[28] = biological target: Beta-lactamase OXA-23 (Acinetobacter baumannii) (UniProt Q9L4P2); experiment: Kcat/Km ratio of Acinetobacter baumannii OXA-23 relative to Cephaloridine
[29] = biological target: Beta-lactamase VIM-2 (Pseudomonas aeruginosa) (UniProt Q9K2N0); experiment: Activity of Pseudomonas aeruginosa VIM-2 relative to Cephaloridine
[30] = tested on: Klebsiella oxytoca; experiment: Activity of Klebsiella oxytoca Beta-lactamase K1 relative to Cephaloridine
[31] = biological target: Carbapenem-hydrolyzing beta-lactamase KPC (Klebsiella pneumoniae) (UniProt Q9F663); experiment: Activity of Klebsiella pneumoniae KPC-2 relative to Cephaloridine
[32] = tested on: C[C@@H](O)[C@H]1C(=O)N2C(C(=O)O)=C(S[C@@H]3CN[C@H](CNS(N)(=O)=O)C3)[C@H](C)[C@H]12; experiment: Activity of Pseudomonas aeruginosa VIM-2
[33] = tested on: C[C@@H](O)[C@H]1C(=O)N2C(C(=O)O)=C(S[C@@H]3CN[C@H](CNS(N)(=O)=O)C3)[C@H](C)[C@H]12; experiment: Kcat/Km ratio of Pseudomonas aeruginosa VIM-2
[34] = biological target: Beta-lactamase OXA-10 (Pseudomonas aeruginosa) (UniProt P14489); experiment: Kcat/Km ratio of Pseudomonas aeruginosa OXA-10 relative to Cephaloridine

| Compound | Km [1] | kcat [1] | Km [2] | kcat [2] | kcat/Km [3] | kcat/Km [4] | Activity [6] | Activity [8] | Activity [9] | Activity [10] | Activity [12] | Activity [14] | Activity [15] | Activity [17] | Activity [19] | Activity [20] | Activity [21] | Activity [22] | Activity [24] | Activity [27] | further results |
| --- | --- | --- | --- | --- | --- | --- | --- | --- | --- | --- | --- | --- | --- | --- | --- | --- | --- | --- | --- | --- | --- |
| C[C@@H](O)[C@H]1C(=O)N2C(C(=O)O)=C(S[C@@H]3CN[C@H](CNS(N)(=O)=O)C3)[C@H](C)[C@H]12 | 45 µM | 0.0068 s⁻¹ | 8 µM | 0.00037 s⁻¹ | 150 M⁻¹ s⁻¹ | 46 M⁻¹ s⁻¹ | 0.00073% | 0.001% | 1e-05% | < 0.0063% | < 0.046% | 41% | 0.044% | 0.027% | 0.0033% | 0.0082% | 0.67% | < 1.2% | 45% | 28% | Activity [5]: 2.1e-05%; Activity [7]: 0.00095%; Activity [11]: 1.7e-05%; Activity [13]: 0.21%; Activity [16]: 0.0022%; Activity [18]: 0.0051%; Activity [23]: 0.00059%; Activity [25]: 10%; Activity [26]: 34%; Activity [28]: 31%; Activity [29]: 2% |
| O=C(Cc1cccs1)N[C@@H]1C(=O)N2C(C(=O)O)=C(/C=C/c3ccc([N+](=O)[O-])cc3[N+](=O)[O-])CS[C@H]12 |  |  |  |  |  |  |  |  | 240% | 160% |  |  |  |  |  |  | 1800% |  |  |  |  |
| C[C@@H](O)[C@H]1C(=O)N2C(C(=O)O)=C(SCCNC=N)C[C@H]12 | 51 µM | 0.091 s⁻¹ | 14 µM | 0.0024 s⁻¹ | 1800 M⁻¹ s⁻¹ | 170 M⁻¹ s⁻¹ | 0.013% | 0.0065% | 0.0044% | < 0.031% | < 0.088% | 70% | 0.2% | 0.092% | 0.04% | 0.03% |  | < 7% | 45% | 45% | Activity [5]: 0.00097%; Activity [7]: 0.09%; Activity [30]: 0.019%; Activity [11]: 0.00048%; Activity [31]: 7.9%; Activity [13]: 31%; Activity [16]: 0.072%; Activity [18]: 0.029%; Activity [23]: 0.0066%; Activity [25]: 83%; Activity [28]: 14200% |
| O=C(Cc1cccs1)N[C@@H]1C(=O)N2C(C(=O)[O-])=C(C[n+]3ccccc3)CS[C@H]12 | 110 µM | 490 s⁻¹ | 66 µM | 37 s⁻¹ | 4.5e+06 M⁻¹ s⁻¹ | 560000 M⁻¹ s⁻¹ |  |  |  |  |  |  |  |  |  |  |  |  |  |  |  |
| Beta-lactamase VIM-2 (Pseudomonas aeruginosa) (from UniProt Q9K2N0) |  |  |  |  |  |  |  |  |  |  |  |  |  |  |  |  |  |  |  |  | Km [32]: 83 µM; kcat [32]: 2.4 s⁻¹; kcat/Km [33]: 29000 M⁻¹ s⁻¹ |
| CC(C)(O/N=C(\C(=O)N[C@@H]1C(=O)N2C(C(=O)[O-])=C(C[n+]3ccccc3)CS[C@H]12)c1csc(N)n1)C(=O)O | 140 µM | 0.013 s⁻¹ | 130 µM | 95 s⁻¹ | 93 M⁻¹ s⁻¹ | 730000 M⁻¹ s⁻¹ | 0.0024% | 260% |  |  | < 0.059% | 14% | < 0.00093% | 0.00077% | 0.0021% | 130% | 0.033% | < 0.48% | 0.22% | 5.7% | Activity [30]: 0.0027%; Activity [31]: 0.097% |
| C[C@@H](O)[C@H]1C(=O)N2C(C(=O)O)=C(S[C@@H]3CN[C@H](C(=O)N(C)C)C3)[C@H](C)[C@H]12 | 90 µM | 0.0096 s⁻¹ | 8.8 µM | 0.00039 s⁻¹ | 110 M⁻¹ s⁻¹ | 44 M⁻¹ s⁻¹ | 0.00041% | 0.0011% | 1.1e-05% | < 0.0063% | < 0.031% | 9.6% | 0.029% | 0.015% | 0.0024% | 0.0079% | 0.058% | < 1.6% | 37% | 31% | Activity [5]: 2.3e-05%; Activity [7]: 0.0022%; Activity [30]: 0.002%; Activity [11]: 1.2e-05%; Activity [31]: 0.92%; Activity [13]: 0.27%; Activity [16]: 0.00083%; Activity [18]: 0.0078%; Activity [23]: 0.00042%; Activity [25]: 18%; Activity [28]: 14.9% |
| CC1(C)S[C@@H]2[C@H](NC(=O)Cc3ccccc3)C(=O)N2[C@H]1C(=O)O | 40 µM | 800 s⁻¹ | 5 µM | 76 s⁻¹ | 2e+07 M⁻¹ s⁻¹ | 1.5e+07 M⁻¹ s⁻¹ |  | 210% | 3.1% | 46% | 540% | 520% | 120% |  | 440% | 2700% | 420% | 1% | 260% | 19% | Activity [30]: 160%; Activity [31]: 15%; Activity [34]: 14000%; Activity [28]: 12000% |

Reference: ChEMBL document CHEMBL1212772
